The text below walks through data of patent publication US20020103117A1, “Use of protein kinase-inhibitor-alpha” (priority 2000, published 2002).

The test system of one test is protein kinase-A. Put plainly: Activity of protein kinase-A in cell cultures of myocytes. Conditions: cell cultures of myocytes (e.g., C9H2 cells). In kind it is cell-based. How it is done:
The protein-kinase-inhibitor alpha shortened to amino acids 14 to 22 was added to the cell cultures of myocytes (e.g., C9H2 cells, available from the American Type Culture Collection), and the activity of protein kinase-A was determined.
The 9-amino-acid-long PKI-alpha inhibitor (the gene product of the second open reader frame of the PKI gene in humans and in pigs) was added to the cell cultures of myocytes, and the expression of the PKI-alpha and the activity of protein kinase-A were determined.

The test system of a further test is functioning rat heart. Put plainly: Action of PKI-alpha on an isolated, perfused functioning rat heart. The arrangement: species or system Sprague Dawley rats. As to the method: Hearts from a total of six Sprague Dawley rats with a weight of about 300 g were isolated and perfused as described in Schulze et al. (Schulze et al.; Circulation 1990: 959-69). The hemodynamic parameters including contractility, external heart work (EHW), coronary and aortic flow were recorded about 15 minutes after antegrade perfusion. Cell-permeable, recombinant PKI-alpha (amino acids 14 to 22, Calbiochem #476485) was then administered. The compound was infused directly into the atrium canula using a motor pump. The infusion rate was continuously adapted to the emission volume (the sum of the aortic and coronary flow) and increased in five-minute intervals to reach the final PKI-alpha concentrations in the perfusate of 0.5, 1.0 and 2.0 μmol/l.

[1] abbreviates: PKI-alpha in perfusate 0.5, 1.0 and 2.0 μmol/l.

Take “shortened PKI-alpha: Cell-permeable, recombinant PKI-alpha comprising only amino acids 14 to 22 of the complete sequence, Calbiochem #476485”: the “activity of protein kinase-A” value in the test on protein kinase-A is reported as “dose-dependent reduction of activity”. Also, in the test on functioning rat heart (setting [1]), the “decrease of the left ventricular function, expressed as dp/dt-max” value worked out at 53% and the “reduction of the external heart work” value came to 43%. In addition, the “depression of the myocardial function” value in the test with functioning rat heart (infusion up to 2 μmol) is “pronounced, reversible, concentration-dependent (up to 2 μmol) depression of the myocardial function”.
